Format in all cases: in vivo
One assay deals with Veronica persica. Description: Post-emergence herbicidal activity against VERPE. The note with it: Veronica persica, 504 h, dosage 320 g/ha. As to the method: (§1) STEME: Stellaria media VERPE: Veronica persica 2. Post-Emergence Herbicidal Action and Crop Plant Compatibility Seeds of monocotyledonous and dicotyledonous weeds and crop plants are placed in sandy loam in plastic or wood-fiber pots, covered with soil and cultivated in a greenhouse under controlled growth conditions. 2 to 3 weeks after sowing, the test plants are treated at the one-leaf stage. The compounds of the invention, formulated in the form of wettable powders (WP) or as emulsion concentrates (EC), are then sprayed onto the green parts of the plants as aqueous suspension or emulsion with addition of 0.5% additive at a water application rate of 600 l/ha (converted). After the test plants had been kept in the greenhouse under optimum growth conditions for about 3 weeks, the activity of the preparations is rated visually in comparison to untreated controls. For example, 100% activity=the plants have died, 0% activity=like control plants.

The next assay deals with Avena fatua. Description: Post-emergence herbicidal activity against AVEFA. The note with it: Avena fatua, 504 h, dosage 320 g/ha, rated about 3 weeks after treatment. As to the method:
as §1, with “AMARE: Amaranthus retroflexus AVEFA: Avena fatua” for “STEME: Stellaria media VERPE: Veronica persica”

The next assay concerns Alopecurus myosuroides. Description: Post-emergence herbicidal activity against ALOMY. The note with it: Alopecurus myosuroides, 504 h, dosage 320 g/ha, rated about 3 weeks after treatment. As to the method: as §1, with “ABUTH: Abutilon theophrasti ALOMY: Alopecurus myosuroides” for “STEME: Stellaria media VERPE: Veronica persica”
The next assay has as its system Polygonum convolvulus. Description: Post-emergence herbicidal activity against POLCO. The settings on record: Fallopia convolvulus, 504 h, dosage 320 g/ha, rated about 3 weeks after treatment. As to the method:
as §1, with “POLCO: Polygonum convolvulus SETVI: Setaria viridis” for “STEME: Stellaria media VERPE: Veronica persica”

The test system of the next assay is Stellaria media. Description: Post-emergence herbicidal activity against STEME. The settings on record: Stellaria media, 504 h, dosage 320 g/ha, rated about 3 weeks after treatment. As to the method:
as §1

The next assay concerns Pharbitis purpurea. Description: Post-emergence herbicidal activity against PHBPU. The note with it: Ipomoea purpurea, 504 h, dosage 320 g/ha, rated about 3 weeks after treatment. As to the method:
as §1, with “LOLRI: Lolium rigidum PHBPU: Pharbitis purpurea” for “STEME: Stellaria media VERPE: Veronica persica”

The test system of another assay is Echinochloa crus-galli. Description: Post-emergence herbicidal activity against ECHCG. The note with it: Echinochloa crus-galli, 504 h, dosage 320 g/ha, rated about 3 weeks after treatment. As to the method:
as §1, with “ECHCG: Echinochloa crus-galli HORMU: Hordeum murinum” for “STEME: Stellaria media VERPE: Veronica persica”

The next assay concerns Hordeum murinum. Description: Post-emergence herbicidal activity against HORMU. The settings on record: Hordeum murinum, 504 h, dosage 320 g/ha. As to the method: as §1, with “ECHCG: Echinochloa crus-galli HORMU: Hordeum murinum” for “STEME: Stellaria media VERPE: Veronica persica”
The test system of a further assay is Amaranthus retroflexus. Description: Post-emergence herbicidal activity against AMARE. The settings on record: Amaranthus retroflexus, 504 h, dosage 320 g/ha, rated about 3 weeks after treatment. As to the method: as §1, with “AMARE: Amaranthus retroflexus AVEFA: Avena fatua” for “STEME: Stellaria media VERPE: Veronica persica”
Another assay has as its system Setaria viridis. Description: Post-emergence herbicidal activity against SETVI. The note with it: Setaria viridis, 504 h, dosage 320 g/ha, rated about 3 weeks after treatment. As to the method: as §1, with “POLCO: Polygonum convolvulus SETVI: Setaria viridis” for “STEME: Stellaria media VERPE: Veronica persica”
Assay [1] is described as follows: Post-emergence treatment, summary over harmful plants. The settings on record: 504 h, application rate of 0.32 kg of active substance or less per hectare, read-out: herbicidal action, post-emergence treatment (very good herbicidal activity). As to the method: 2. Post-Emergence Herbicidal Action and Crop Plant Compatibility
as §1, with “Seeds” for “STEME: Stellaria media VERPE: Veronica persica 2. Post-Emergence Herbicidal Action and Crop Plant Compatibility Seeds”
As shown by the results, compounds according to the invention such as, for example, the compounds No. I-35 and other compounds from the tables (for example I-28, I-38, I-01, I-19, I-36, I-29, I-32, I-11, I-12, I-37, I-06, I-09, I-33, I-34, I-13, I-04, I-26, I-21, I-30, I-05, I-03, I-20, I-27, I-14, I-10, I-23, I-07, I-25, I-02, I-08, I-24, I-41, I-42, I-43, I-44, I-46, I-49, I-54, I-55, I-56) have, when used for post-emergence treatment, very good herbicidal activity (80% to 100% herbicidal action) against harmful plants such as Abutilon theophrasti, Alopecurus myosuroides, Amaranthus retroflexus, Avena fatua, Echinochloa crus-galli, Hordeum murinum, Lolium rigidum, Pharbitis purpurea, Polygonum convolvulus, Setaria viridis, Stellaria media, Veronica persica and Viola tricolor at an application rate of 0.32 kg of active substance or less per hectare.

On to `CCOC(=O)C1(NC(=O)C2(C)CC(c3cc(F)cc(F)c3)=NO2)CCOC1` (stereo not drawn) [I-18, ethyl 3-[[3-(3,5-difluorophenyl)-5-methyl-4H-isoxazole-5-carbonyl]amino]tetrahydrofuran-3-carboxylate], for which the pest or weed control at 320 g/ha with Veronica persica amounted to 80%; in the assay with Avena fatua, 100%; in the assay on Alopecurus myosuroides, 80%.

For the compound `COC(=O)C1(NC(=O)C2(C)CC(c3cc(F)cc(F)c3)=NO2)CCOC1` (stereo not drawn) [I-17, methyl 3-[[3-(3,5-difluorophenyl)-5-methyl-4H-isoxazole-5-carbonyl]amino]tetrahydrofuran-3-carboxylate], the pest or weed control at 320 g/ha was determined as 80% in the assay with Avena fatua and 90% with Polygonum convolvulus.

Turning to `COC(=O)[C@]1(OC)C[C@H](NC(=O)C2(C)CC(c3cccc(F)c3)=NO2)CO1` (stereo partly drawn) [I-40, methyl (2S,4S)-4-[[3-(3-fluorophenyl)-5-methyl-4H-isoxazole-5-carbonyl]amino]-2-methoxytetrahydrofuran-2-carboxylate], the pest or weed control at 320 g/ha in the assay on Stellaria media was determined as 80%; in the assay with Veronica persica, 80%; in the assay with Pharbitis purpurea, 90%; in the assay with Echinochloa crus-galli, 80%; with Alopecurus myosuroides, 90%; in the assay with Hordeum murinum, 90%. The pest or weed control at 320 g/ha in the assay on Amaranthus retroflexus, in the assay on Setaria viridis and with Polygonum convolvulus was 80% throughout.

Compound `C=C[C@@]1(C(=O)N[C@H]2CO[C@@H](C(=O)OC)C2)CC(c2cc(F)cc(F)c2)=NO1` (mixture of isomers) [I-22, methyl cis-4-[[(5R)-3-(3,5-difluorophenyl)-5-vinyl-4H-isoxazole-5-carbonyl]amino]tetrahydrofuran-2-carboxylate] showed a pest or weed control at 320 g/ha in the assay with Polygonum convolvulus of 90%.

`CC1(C(=O)N[C@H]2CO[C@@H](C(=O)O)C2)CC(c2cccc(F)c2)=NO1` (relative stereo) [I-20, cis-4-[[3-(3-fluorophenyl)-5-methyl-4H-isoxazole-5-carbonyl]amino]tetrahydrofuran-2-carboxylic acid]: the pest or weed control at 320 g/ha is 80% with Stellaria media; 90% in the assay on Veronica persica; 80% with Pharbitis purpurea; 80 to 100% in [1]; 80% in the assay with Echinochloa crus-galli; 90% in the assay on Avena fatua. Further, the pest or weed control at 320 g/ha in the assay with Alopecurus myosuroides is 90%; in the assay on Amaranthus retroflexus, 80%; in the assay on Setaria viridis, 80%; in the assay on Polygonum convolvulus it was 80%.

Turning to `COC(=O)[C@H]1C[C@@H](NC(=O)C2(C)CC(c3cccc(F)c3)=NO2)CO1` (relative stereo) [I-13, methyl cis-4-[[3-(3-fluorophenyl)-5-methyl-4H-isoxazole-5-carbonyl]amino]tetrahydrofuran-2-carboxylate], the pest or weed control at 320 g/ha in the assay with Veronica persica is 80%; in the assay on Pharbitis purpurea, 90%; in assay [1] it was 80 to 100%; in the assay on Echinochloa crus-galli it was 80%; with Avena fatua, 90%; in the assay on Alopecurus myosuroides it was 90%. Moreover, the pest or weed control at 320 g/ha in the assay with Setaria viridis and in the assay with Polygonum convolvulus was 80% in each case.

Values taken from patent US11597724B2, “Herbicidally active 3-phenylisoxazoline-5-carboxamides of tetrahydro and dihydrofuran carboxylic acids and esters” (Bayer Aktiengesellschaft, priority 2017, dated 2023).
